# Assay results from US6492536B2, “Steroids, their use as medicaments, their preparation process, the intermediates of this process and the compositions containing them” (Aventis Pharma S.A., priority 1996, dated 2002).
# Assays:
# male mice = assay: Ear oedema test induced by croton oil; assay type: in vivo; conditions: applied to the ear, 6 hours
# Procedure: Ear Oedema Test Induced by Croton Oil
# The products have also been tested in the model of the ear oedema of mice using croton oil according to the method described in Tonelli et al. (Endocrinology, 1965, 77, 625-634). An ear oedema is induced in male mice weighing 18 to 22 g, by using croton oil (2% v/v) in a pyridine-water-ether solution 4:1:14.6 (by volume). The animals are sacrificed 6 hours later, the ears are removed and weighed. The difference in weight between the ear treated with croton oil and the contralateral ear (non-treated) allows 100% of the oedema to be determined. The products to be tested are dissolved in the solution of croton oil and applied to the ear.
# Female Wistar rats [1] = assay: Thymolytic activity (thymus weight in granuloma test); assay type: in vivo; conditions: rat, oral route, once a day for four days
# Procedure: (§1) Granuloma Test—Thymolytic Activity
# (§2) The anti-inflammatory activity was studied according to the standard granuloma test. The technique used is a modification of the method of Meier and Coll. (Experentia, 1950, 6, 469). Female Wistar rats, weighing 90 to 100 g, receive an implantation of two cotton pellets of 10 mg each under the skin of the thorax. The products are immediately administered by oral route, a the rate of once a day for four days. The animals are then sacrificed. The pellets surrounded by the granuloma tissue formed, are weighed in the fresh state, then after eighteen hours at 60° C. The weight of the granuloma is obtained by deduction of the initial weight of the cotton.
# The thymuses are also removed and weighed in order to determine the thymolytic activity of the products.
# collagenase promoter = assay: Regulation of transcription in transfected Hela cells: transrepression (Coll (-517/+63) CAT plasmid); assay type: cell-based; conditions: 24 hours, CAT ELISA; for inhibition at 1 µM / inhibition at 0.1 µM / inhibition at 0.01 µM / inhibition at 0.001 µM: Homo sapiens
# Procedure: (§3) The molecules according to the invention have been tested in models of HELA cells transfected with the GRE-tk-CAT plasmid (transactivation), or with the pColl-CAT plasmid (transrepression). (Cf. TEST 1)
# (§4) I) Study of the regulation of transcription in transfected Hela cells.
# (§5) Hela cells (ATCC ref: CCL-2) are distributed in a 6-well plate, in a nutritive medium with a density of 4×10^5 cells/ml, 24 hours before the transfection, and are incubated at 37° C. The transitory transfections are produced according to the precipitate method with calcium phosphate. In the case of the study of transactivation, the cells are transfected with 1 μg of GRE-tk-CAT plasmid, 1 μg of polyII β-GAL plasmid and KS plasmid (Stratagene), s.q.f. 5 μg. In the case of the study of transrepression, the cells are transfected with 3 μg of Coll (−517/+63) CAT plasmid, 250 ng of pSV-cjun plasmid, 1 μg of polyII β-GAL plasmid and KS plasmid (Stratagene), s.q.f. 5 μg. The precipitate is left in contact with the cells for 16 hours. These are then rinsed and covered with the nutritive medium containing different concentrations of Dexamethasone or the products to be studied (10^−9M, 10^−8M, 10^−7M, 10^−6M). 24 hours after the addition of the products, the cells are lysed in 250 μl of MOPS-NaCl-Triton X-100 buffer. The CAT is dosed in the cellular extracts using the ELISA Kit (Boehringer Mannheim).
# GRE-tk promoter = assay: Regulation of transcription in transfected Hela cells: transactivation (GRE-tk-CAT plasmid); assay type: cell-based; conditions: 24 hours, CAT ELISA
# Procedure: as §3, §4, §5
# Female Wistar rats [2] = assay: Granuloma test (cotton pellets), anti-inflammatory activity; assay type: in vivo; conditions: rat, oral route, once a day for four days
# Procedure: as §1, §2
# Male Wistar rats = assay: Retarded hypersensitivity test (M. Tuberculosis), immunosuppressive activity; assay type: in vivo; conditions: oral route from day 4 to 7, paw oedema 24 hours after antigen; for ED50: Mycobacterium tuberculosis, 4TO7, rat, read-out: Retarded hypersensitivity (M. Tuberculosis, rat) ED 50
# Procedure: 3) Immunosuppressive Activity.
# The immunosuppressive activity was studied according to the retarded hypersensitivity test described in the article by Hambleton et al. (Agents and Actions, […], 29, 328). Male Wistar rats weighing 150 to 160 g are sensitized on day 0 with a suspension of Mycobacterium Tuberculosis 4 mg/ml in parrafin oil by a sub-cutaneous injection at the base of the tail (0.1 ml/animal).
# The products are administered by oral route from day 4 to 7.
# On day 7, one hour after the last administration, the animals receive an injection of the soluble fraction of the antigen triggering the hypersensitivity reaction: 0.4 mg/rat in 0.2 ml by intraplantar route in a rear paw, the other receives the same quantity of solvent.
# The oedema is measured 24 hours afterwards using an UGO BASIL plethysmometer from APELEX.
# The activity of the products is evaluated by the percentage reduction in the increase of the injected paw relative to that of the control animals.
SMILES,Oedema using croton oil (mouse) ED 50 (male mice),Thymolysis ED 50 (Female Wistar rats [1]),inhibition at 1 µM (collagenase promoter; 10^-6 M),inhibition at 0.1 µM (collagenase promoter; 10^-7 M),inhibition at 0.01 µM (collagenase promoter; 10^-8 M),inhibition at 0.001 µM (collagenase promoter; 10^-9 M),Activation of GRE-tk (%) (GRE-tk promoter; 10^-6 M),Activation of GRE-tk (%) (GRE-tk promoter; 10^-7 M),Activation of GRE-tk (%) (GRE-tk promoter; 10^-8 M),Activation of GRE-tk (%) (GRE-tk promoter; 10^-9 M),Granuloma ED 50 (Female Wistar rats [2]),ED50 (Male Wistar rats),Inhibition of the Coll promoter (%) (collagenase promoter; 10^-6 M),Inhibition of the Coll promoter (%) (collagenase promoter; 10^-7 M),Inhibition of the Coll promoter (%) (collagenase promoter; 10^-8 M),Inhibition of the Coll promoter (%) (collagenase promoter; 10^-9 M),"Retarded hypersensitivity (M. Tuberculosis, rat) ED 50 (Male Wistar rats)"
"C[C@@H]1C[C@H]2[C@@H]3CCC4=CC(=O)C=C[C@]4(C)[C@@]3(F)[C@@H](O)C[C@]2(C)[C@@]1(O)C(=O)CO [Dexamethasone, reference compound]",1 μg/ear,<0.05 mg/kg/po,93.1%,96.6%,87.6%,42.2%,98.82 +/− 1.18%,89.48 +/− 2.26%,53.38 +/− 2.65%,7.34 +/− 2.57%,0.1 mg/kg/po,0.05 mg/kg,,,,,
"CSCC(=O)[C@H]1[C@H](C)C[C@H]2[C@@H]3CCC4=CC(=O)C=C[C@]4(C)[C@@]3(F)[C@@H](O)C[C@@]21C [Example 1, 9α-fluoro-11β-hydroxy-16α-methyl-21-thiomethyl-pregna-1,4-diene-3,20-dione]",10 μg/ear,2.5 mg/kg/po,,,,,37.56 +/− 1.9%,35.21 +/− 2.24%,27.74 +/− 1.05%,3.78 +/− 0.87%,5 mg/kg/po,,81.79 +/− 2.98%,57.61 +/− 2.46%,37.12 +/− 6.7%,3.57 +/− 3.09%,2.3 mg/kg
"C[C@@H]1C[C@H]2[C@@H]3CCC4=CC(=O)C=C[C@]4(C)[C@@]3(F)[C@@H](O)C[C@]2(C)[C@H]1C(=O)CC#N [Example 2, 9α-fluoro-11β-hydroxy-16α-methyl-pregna-1,4-diene-3,20-dione-21-carbonitrile]",2 μg/ear,2.5 mg/kg/po,75.6%,81.3%,36.2%,20.6%,16.92 +/− 3.55%,10.45 +/− 4.33%,1.34 +/− 1.33%,0%,>7 mg/kg/po,1.5 mg/kg,,,,,
"C[C@]12C=CC(=O)C=C1CC[C@@H]1[C@@H]2[C@@H](O)C[C@@]2(C)[C@H]1CC[C@]2(O)C(=O)CO [Prednisolone, reference compound]",4 μg/ear,1.6 mg/kg/po,,,,,,,,,2.5 mg/kg/po,5 to 20 mg/kg,,,,,
